One data set relates to TK-10. Briefly: Antiproliferative activity against human TK-10 cells assessed as reduction in cell viability incubated for 48 hrs by SRB assay. It is filed as functional, cell-based. Particulars: TK-10, 48 h.
The subject of the next data set is UACC-62. Briefly: Antiproliferative activity against human UACC-62 cells assessed as reduction in cell viability incubated for 48 hrs by SRB assay. It is filed as functional, cell-based. The note with it: UACC-62, 48 h. Background: In SRB staining, fixed cells bind dye roughly in proportion to their protein.
The next data set deals with MCF7. In words: Antiproliferative activity against human MCF7 cells assessed as reduction in cell viability measured after 48 hrs by SRB assay. The class given is functional, cell-based. The note with it: MCF7, 48 h.
The subject of data set [1] is Plasmodium falciparum. Briefly: microbe, parasite or virus in culture. Particulars: Dd2.
Description: Antiplasmodial activity against Plasmodium falciparum Dd2 assessed as inhibition of parasitic growth
The test system of data set [2] is BT-549. Briefly: Antiproliferative activity against human BT-549 cells assessed as cell growth inhibition measured after 72 hrs by SRB assay. The class given is functional, cell-based. Particulars: BT-549, 72 h.
For another data set, the system named is CAKI-2. In words: Antiproliferative activity against human CAKI-2 cells assessed as inhibition of cell growth. It is filed as functional, cell-based.
Data set [3] concerns Plasmodium falciparum. In words: Antimalarial activity against Plasmodium falciparum W2 assessed as reduction in malarial growth. It is filed as functional, organism-based.
The subject of data set [4] is Plasmodium falciparum. Briefly: Antimalarial activity against Plasmodium falciparum NF54 assessed as reduction in cell growth. It is filed as functional, organism-based.
Data set [5] relates to HL-60. In words: Antiproliferative activity against human HL-60 cells assessed as cell growth inhibition measured after 48 hrs by SRB assay. The class given is functional, cell-based. The note with it: HL-60, 48 h.
Data set [6] is described as follows: Cytotoxicity against African green monkey Vero cells. It is filed as toxicity, cell-based. The note with it: chlorocebus sabaeus, read-out: TC50 (the source's name).
For data set [7], the system named is Plasmodium falciparum. In words: Antimalarial activity against Plasmodium falciparum K1 assessed as inhibition of malarial growth. It is filed as functional, organism-based.
Data set [8] in a line: Cytotoxicity against pig LLC-PK1 cells. It is filed as toxicity, cell-based, Sus scrofa. Particulars: read-out: TC50 (the source's name).
The subject of a further data set is HCT-15. Briefly: cells. The note with it: Homo sapiens, HCT-15, 48 h.
Data set [9] concerns SK-MEL. In words: Antiproliferative activity against human SK-MEL cells assessed as reduction in cell viability incubated for 48 hrs by MTT assay. It is filed as functional, cell-based. (Formazan colour is commonly taken as a measure of viable cells.)
The subject of a further data set is ADR5000 cell line. In words: Antiproliferative activity against human CEM/ADR5000 cells assessed as reduction in cell viability incubated for 48 hrs by MTT assay. The class given is functional, cell-based. The note with it: ADR5000, 48 h.
The subject of data set [10] is BT-549. In words: Antiproliferative activity against human BT-549 cells assessed as reduction in cell viability incubated for 48 hrs by MTT assay. It is filed as functional, cell-based. The note with it: BT-549, 48 h.
For a further data set, the system named is XF498. Briefly: Antiproliferative activity against human XF498 cells assessed as reduction in cell viability incubated for 48 hrs by MTT assay. The class given is functional, cell-based. Particulars: XF498, 48 h.
Data set [11] concerns SK-MEL. In words: Antiproliferative activity against human SK-MEL cells assessed as reduction in cell growth inhibition. It is filed as functional, cell-based.
The next data set relates to A549. Briefly: cells. The note with it: Homo sapiens, A549, 48 h.
The next data set deals with SK-OV-3. Briefly: Antiproliferative activity against human SK-OV-3 cells assessed as reduction in cell viability incubated for 48 hrs by MTT assay. It is filed as functional, cell-based. Particulars: SK-OV-3, 48 h.
For another data set, the system named is KB. In words: Antiproliferative activity against human KB cells assessed as reduction in cell viability incubated for 48 hrs by MTT assay. The class given is functional, cell-based.
A further data set relates to SK-VLB. In words: Antiproliferative activity against human SK-VLB cells assessed as reduction in cell viability incubated for 48 hrs by MTT assay. The class given is functional, cell-based.
The test system of another data set is Jurkat. Briefly: Antiproliferative activity against human Jurkat cells assessed as reduction in cell viability incubated for 48 hrs by MTT assay. The class given is functional, cell-based.
The next data set deals with SK-MEL-2. In words: Antiproliferative activity against human SK-MEL-2 cells assessed as reduction in cell viability incubated for 48 hrs by MTT assay. Particulars: SK-MEL-2, 48 h. The class given is functional, cell-based.
Data set [12] concerns HL-60. In words: Antiproliferative activity against human HL-60 cells assessed as reduction in cell viability incubated for 48 hrs by MTT assay. The class given is functional, cell-based. Particulars: HL-60, 48 h.

As usually defined, the IC50 is the concentration at which inhibition is half-maximal.

Description for HCT-15: Antiproliferative activity against human HCT-15 cells assessed as reduction in cell viability incubated for 48 hrs by MTT assay

`COc1cc([C@@H]2c3cc4c(cc3[C@@H](O[C@@H]3O[C@@H]5CO[C@@H](C)O[C@H]5[C@H](O)[C@H]3O)[C@H]3COC(=O)[C@H]23)OCO4)cc(OC)c1O` [ETOPOSIDE]: the IC50 with TK-10, in the data set on UACC-62 and with MCF7 was 830 nM each time.

`C[C@@H]1CC[C@H]2[C@@H](C)C(=O)O[C@@H]3O[C@@]4(C)CC[C@@H]1[C@]32OO4` [ARTEMISININ]: the IC50 with Plasmodium falciparum [1] was 6.9 nM; in the data set with BT-549 [2] it was 40000 nM; in the data set on CAKI-2, 40000 nM; with Plasmodium falciparum [3], 6.6 nM; in the data set on Plasmodium falciparum [4] it was 6.9 nM; in the data set on HL-60 [5] it was 40000 nM. For the same molecule, in the data set on Plasmodium falciparum [7], the IC50 came to 7.81 nM. The CC50 in data set [6] is over 1690 nM.

For the molecule `COc1cccc2c1C(=O)c1c(O)c3c(c(O)c1C2=O)C[C@@](O)(C(=O)CO)C[C@@H]3O[C@H]1C[C@H](N)[C@H](O)[C@H](C)O1` [DOXORUBICIN], the CC50 in data set [8] is 1290 nM. For the same molecule, the IC50 turned out to be 9 nM with HCT-15; 9 nM with SK-MEL [9]; 9 nM in the data set on ADR5000 cell line; 9 nM in the data set with BT-549 [10]; 9 nM with XF498; 170 nM in the data set with SK-MEL [11]. The IC50 with A549, with SK-OV-3, with KB, in the data set with SK-VLB, in the data set on Jurkat and with SK-MEL-2 was 9 nM in each case. The IC50 in the data set on HL-60 [12] is 9 nM.
